Patent US20250000785A1, “COSMETIC COMPOSITION COMPRISING CRANBERRY EXTRACT AND CRANBERRY SEED OIL” (Givaudan SA, priority 2021, published 2025)

Test system: TNF-α release of Normal Human Epidermal Keratinocytes (NHEKs) stressed with PMA
Assay: TNF-α release by NHEKs stressed with PMA (ELISA quantification, normalised with MTT)
Assay type: cell-based
Conditions: dexamethasone 1 μM, 24 h pre-incubation, then PMA 1 ng/ml 24 h; vs untreated PMA-stressed NHEKs; p<0.001
Procedure: The effect of a cranberry extract, a cranberry seed oil and combinations of a cranberry extract and a cranberry seed oil on the anti-inflammatory activity of keratinocytes stressed with PMA was evaluated by comparing the decrease of the cytokine TNF-α release of Normal Human Epidermal Keratinocytes (NHEKs) treated with the cranberry products and stressed with PMA (Phorbol 12-myristate 13-acetate) with the TNF-α release of untreated NHEKs stressed with PMA.
The cell culture was done on primary cells isolated from fresh biopsies. NHEKs were seeded in a type I collagen pre-coated 24 wells-plate at 30 000 cells per well in triplicate. […]
A MTT assay was performed to evaluate treatments toxicity and for the normalisation of TNF-α quantification.
MTT solution (Sigma) diluted at 1 mg/mL in basal medium was added to each well and incubated for 3 hours at 37° C., 5% CO2. […] The optical density was measured at a wavelength of 560 nm.
The TNF-α quantification was realized with the Human TNF-alpha Quantikine ELISA kit (DTA00D, R&D Systems).
The samples and the standard range were incubated for 2 hours in 96-wells plate pre-coated with a monoclonal antibody specific for human TNF-α in presence of the Assay Diluent RD1F. […] The optical density was measured at 450 nm and 540 nm with a microplate reader (TECAN SPARK® 10M). […]
The quantification was carried out in duplicate. […]

C[C@@H]1C[C@H]2[C@@H]3CCC4=CC(=O)C=C[C@]4(C)[C@@]3(F)[C@@H](O)C[C@]2(C)[C@@]1(O)C(=O)CO [dexamethasone, Dexamethasone]
reduction of the release of cytokine TNF-α: 46%
